The values below come from US9975900B2, “Substituted imidazo[1,2-α]pyrazines for treating spinal muscular atrophy” (Hoffmann-La Roche Inc., priority 2014, dated 2018).

Assay [1] concerns full length SMN2 minigene mRNA (HEK293H cells stably transfected with the SMN2-A minigene construct). Put plainly: RT-qPCR assay for SMN2 minigene pre-mRNA splicing in cultured cells. To be noted: Homo sapiens, HEK293-H, 24 hours, 7-point concentration curve, concentration giving 1.5-fold FL SMN2mini mRNA vs vehicle, read-out: EC1.5x minigene (EC1.5x concentration for production of full length SMN2 minigene mRNA). The assay is classed as cell-based. As for the experimental part:
The reverse transcription-quantitative PCR-based (RT-qPCR) assay is used to quantify the level of the full length SMN2 minigene (referred to herein by the term “FL SMN2mini”) mRNA containing SMN2 exon 7 in a HEK293H cell line stably transfected with said minigene and treated with a test compound. Materials used and respective sources are listed below in Table 1.
The SMN2-A minigene construct was prepared as described in International Patent Application WO2009/151546A1 page 145 paragraph [00400] to page 147 paragraph [00412] (incl. FIG. 1 and FIG. 3 therein).
HEK293H cells stably transfected with the SMN2-A minigene construct (10,000 cells/well) are seeded in 200 μL of cell culture medium (DMEM plus 10% FBS, with 200 μg/mL hygromycin) in 96-well flat-bottom plates and the plate is immediately swirled to ensure proper dispersal of cells and the formation of an even monolayer of cells. Cells are allowed to attach for 6 hours. Test compounds are serially diluted 3.16-fold in 100% DMSO to generate a 7-point concentration curve. A solution of test compound (1 μL, 200× in DMSO) is added to each cell-containing well and the plate is incubated for 24 hours in a cell culture incubator (37° C., 5% CO2, 100% relative humidity). 2 replicates are prepared for each test compound concentration. The cells are then lysed in the Cells-To-Ct lysis buffer and the lysate is stored at −80° C.
Full length SMN2-A minigene and GAPDH mRNA are quantified using the primers and probes referenced in Table 2. Primer SMN Forward A (SEQ ID NO.1) hybridizes to a nucleotide sequence in exon 7 (nucleotide 22 to nucleotide 40), primer SMN Reverse A (SEQ ID NO.2) hybridizes to a nucleotide sequence in the coding sequence of Firefly luciferase, SMN Probe A (SEQ ID NO.3) hybridizes to a nucleotide sequence in exon 7 (nucleotide 50 to nucleotide 54) and exon 8 (nucleotide 1 to nucleotide 21). The combination of these three oligonucleotides detects only SMN1 or SMN2 minigenes (RT-qPCR) and will not detect endogenous SMN1 or SMN2 genes.
The SMN forward and reverse primers are used at final concentrations of 0.4 μM. The SMN probe is used at a final concentration of 0.15 μM. The GAPDH primers are used at final concentrations of 0.2 μM and the probe at 0.15 μM.
The SMN2-minigene GAPDH mix (15 μL total volume) is prepared by combining 7.5 of 2×RT-PCR buffer, 0.4 μL of 25×RT-PCR enzyme mix, 0.75 μL of 20× GAPDH primer-probe mix, […] of water, 2 μL of 10-fold diluted cell lysate, 0.06 μL of 100 μM SMN forward primer, 0.06 μL of 100 μM SMN reverse primer, and 0.225 μL of 100 μM SMN probe.
PCR is carried out at the following temperatures for the indicated time: Step 1: 48° C. (15 min); Step 2: 95° C. (10 min); Step 3: 95° C. (15 sec); Step 4: 60° C. (1 min); then repeat Steps 3 and 4 for a total of 40 cycles.
Each reaction mixture contains both SMN2-A minigene and GAPDH primers/probe sets (multiplex design), allowing simultaneous measurement of the levels of two transcripts.
The increase in the abundance of the FL SMN2mini mRNA relative to that in cells treated with vehicle control is determined from real-time PCR data using a modified ΔΔCt method (as described in Livak and Schmittgen, Methods, 2001, 25:402-8). The amplification efficiency E is calculated from the slope of the amplification curve for FL SMN2mini and GAPDH individually. The abundance of FL SMN2mini and GAPDH mRNA are then calculated as (1+E)^−Ct, where Ct is the threshold value for each amplicon. The abundance of FL SMN2mini mRNA is normalized to GAPDH mRNA abundance. The normalized FL SMN2mini mRNA abundance from test compound-treated samples is then divided by normalized FL SMN2mini mRNA abundance from vehicle-treated cells to determine the level of FL SMN2mini mRNA relative to vehicle control. […]

In assay [2] the test system is SMN protein in SMA patient fibroblast cells (GM03813). Kind of assay: SMN protein assay (HTRF) in cultured cells. The assay is classed as cell-based. The settings on record: Homo sapiens, SMA Type 1 patient fibroblasts, 48 hours; for EC (1.5-fold): 7-point concentration curve, concentration giving 1.5 times SMN protein vs vehicle, read-out: EC1.5x SMN protein (EC1.5x concentration for SMN protein expression); for maximal fold induction: fold increase relative to vehicle control, read-out: Max. fold increase of SMN protein. How it is done: The SMN HTRF (homogeneous time resolved fluorescence) assay is used to quantify the level of SMN protein in SMA patient fibroblast cells treated with test compounds. Materials used and respective sources are listed below in Table 4.
Cells are thawed and cultured in DMEM-10% FBS for 72 hours. Cells are trypsinized, counted and re-suspended to a concentration of 25,000 cells/mL in DMEM-10% FBS. The cell suspensions are plated at 5,000 cells per well in a 96 well microtiter plate and incubated for 3 to 5 hours. Test compounds are serially diluted 3.16-fold in 100% DMSO to generate a 7-point concentration curve. 1 μL of test compound solution is transferred to cell-containing wells and cells are incubated for 48 hours in a cell culture incubator (37° C., 5% CO2, 100% relative humidity). Triplicate samples are set up for each test compound concentration. After 48 hours, the supernatant is removed from the wells and 25 μL of the RIPA lysis buffer, containing protease inhibitors, is added to the wells and incubated with shaking at room temperature for 1 hour. 25 μL of the diluent is added and then 35 μL of the resulting lysate is transferred to a 384-well plate, where each well contains 5 μL of the antibody solution (1:100 dilution of anti-SMN d2 and anti-SMN cryptate in SMN reconstitution buffer). The plate is centrifuged for 1 minute to bring the solution to the bottom of the wells, then incubated overnight at room temperature. Fluorescence for each well of the plate at 665 nm and 620 nm is measured on an EnVision multilabel plate reader (Perkin-Elmer).
The normalized fluorescence signal is calculated for each sample, Blank and vehicle control well by dividing the signal at 665 nm by the signal at 620 nm. Normalizing the signal accounts for possible fluorescence quenching due to the matrix effect of the lysate. The ΔF value (a measurement of SMN protein abundance as a percent value) for each sample well is calculated by subtracting the normalized average fluorescence for the Blank control wells from the normalized fluorescence for each sample well, then dividing this difference by the normalized average fluorescence for the Blank control wells and multiplying the resulting value by 100. The ΔF value for each sample well represents the SMN protein abundance from test compound-treated samples. The ΔF value for each sample well is divided by the ΔF value for the vehicle control wells to calculate the fold increase in SMN protein abundance relative to the vehicle control. Table 5 provides EC1.5× concentrations for SMN protein expression that was obtained from the 7-point concentration data generated according to the above procedure for particular compounds of the present invention.
Table 6 provides the maximum fold increase of SMN protein that was obtained from the 7-point concentration data generated according to the above procedure for particular compounds of the present invention
Background: In TR-FRET formats the signal depends on donor and acceptor labels being close together.

Each structure is given as a SMILES string. Structures can show the parent of a compound that is named as a salt.

As to `CCOc1cc(N2CCN[C@@H](C)C2)ccc1C(=O)Nc1cn2cc(C)nc2cn1` [Example 4, 2-ethoxy-N-(2-methylimidazo[1,2-a]pyrazin-6-yl)-4-[(3S)-3-methylpiperazin-1-yl]benzamide], the EC (1.5-fold) in assay [1] was found to be 0.0263 µM. For the same compound, in assay [2], the EC (1.5-fold) is 0.122 µM and the maximal fold induction stood at 1.92.

For `Cc1cn2cc(NC(=O)c3ccc(N4CCNC(C(C)C)C4)cc3F)ncc2n1` (stereo not drawn) [Example 45, 2-fluoro-N-(2-methylimidazo[1,2-a]pyrazin-6-yl)-4-(3-propan-2-ylpiperazin-1-yl)benzamide hydrochloride], the EC (1.5-fold) is 0.106 µM in assay [1] and 0.264 µM in assay [2]. In assay [2], the maximal fold induction was determined as 1.76.

For the compound `Cc1cn2cc(NC(=O)c3ccc(N4CCN[C@H](C)C4)cc3F)nc(C(F)(F)F)c2n1` [Example 43, 2-fluoro-4-[(3R)-3-methylpiperazin-1-yl]-N-[2-methyl-8-(trifluoromethyl)imidazo[1,2-a]pyrazin-6-yl]benzamide], the EC (1.5-fold) in assay [1] stood at 0.04 µM; in assay [2] it was 0.087 µM. In assay [2], the maximal fold induction was 1.76.

For the compound `Cc1cn2cc(NC(=O)c3ccc(N4C[C@@H](C)N[C@@H](C)C4)cc3F)nc(C)c2n1` [Example 19, N-(2,8-dimethylimidazo[1,2-a]pyrazin-6-yl)-4-[(3R,5S)-3,5-dimethylpiperazin-1-yl]-2-fluorobenzamide], the EC (1.5-fold) in assay [1] amounted to 0.003 µM. Also, in assay [2], the EC (1.5-fold) was determined as 0.0274 µM and the maximal fold induction amounted to 1.71.

For `Cc1cn2cc(NC(=O)c3cc(F)c(N4CCNC(C)C4)cc3F)ncc2n1` (stereo not drawn) [Example 29, 2,5-difluoro-N-(2-methylimidazo[1,2-a]pyrazin-6-yl)-4-(3-methylpiperazin-1-yl)benzamide hydrochloride], in assay [1], the EC (1.5-fold) was 0.0852 µM. Moreover, in assay [2], the EC (1.5-fold) was determined as 0.495 µM and the maximal fold induction was 1.91.

`Cc1cn2cc(NC(=O)c3ccc(N4CCN[C@H](C)C4)cc3F)nc(C(F)F)c2n1` [Example 44, N-[8-(difluoromethyl)-2-methylimidazo[1,2-a]pyrazin-6-yl]-2-fluoro-4-[(3R)-3-methylpiperazin-1-yl]benzamide]: the EC (1.5-fold) is 0.0095 µM in assay [1] and 0.035 µM in assay [2]. Further, the maximal fold induction in assay [2] is 1.79.

For `Cc1cn2cc(NC(=O)c3ccc(N4CCC(N5CCCC5)CC4)cc3F)nc(C)c2n1` [Example 48, N-(2,8-dimethylimidazo[1,2-a]pyrazin-6-yl)-2-fluoro-4-(4-pyrrolidin-1-ylpiperidin-1-yl)benzamide], the figures for the EC (1.5-fold) in assay [1] and in assay [2] were 0.0266 µM and 0.23 µM, respectively. In addition, in assay [2], the maximal fold induction was found to be 1.65.

Consider `Cc1cn2cc(NC(=O)c3ccc(N4CCN5CCC[C@@H]5C4)cc3F)nc(C3CC3)c2n1` [Example 22, 4-[(8aR)-3,4,6,7,8,8a-hexahydro-1H-pyrrolo[1,2-a]pyrazin-2-yl]-N-(8-cyclopropyl-2-methylimidazo[1,2-a]pyrazin-6-yl)-2-fluorobenzamide], for which the EC (1.5-fold) in assay [1] was 0.0952 µM; in assay [2] it was 0.66 µM. For the same compound, the maximal fold induction in assay [2] turned out to be 1.5.

For the compound `Cc1cn2cc(NC(=O)c3ccc(N4CC[C@H](N5CCCC5)C4)cc3F)nc(C)c2n1` [Example 20, N-(2,8-dimethylimidazo[1,2-a]pyrazin-6-yl)-2-fluoro-4-[(3S)-3-pyrrolidin-1-ylpyrrolidin-1-yl]benzamide], the EC (1.5-fold) in assay [1] is 0.023 µM. In assay [2], the EC (1.5-fold) came out at 0.101 µM and the maximal fold induction stood at 1.7.

Consider `Cc1cn2cc(NC(=O)c3ccc(N4CCN5CCC[C@H]5C4)cc3F)nc(C)c2n1` [Example 13, 4-[(8aS)-3,4,6,7,8,8a-hexahydro-1H-pyrrolo[1,2-a]pyrazin-2-yl]-N-(2,8-dimethylimidazo[1,2-a]pyrazin-6-yl)-2-fluorobenzamide], for which the EC (1.5-fold) in assay [1] was determined as 0.0262 µM. Moreover, in assay [2], the EC (1.5-fold) came to 0.109 µM and the maximal fold induction came to 1.66.
